Results taken from patent US20240041042A1, “1-(PYRIDYL)-5-AZINYLPYRAZOLE DERIVATIVES, AND THEIR USE FOR CONTROL OF UNDESIRED PLANT GROWTH” (Bayer Aktiengesellschaft, priority 2020, published 2024).

Experiments:
Assay type in all cases: in vivo
[1] = test system: Abutilon theophrasti (ABUTH); experiment: Pre-emergence herbicidal action against ABUTH; details: Dosage column 320 g/ha (title prints 3200 g/ha); scored visually after about 3 weeks; 100% = plants have died
Procedure, shortened: (§1)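 Application rates ran to 320 g/ha or lower, with several dosages tested on the same weeds. The compound, as wettable powder or emulsion concentrate, is sprayed pre-emergence onto soil over sown seeds; greenhouse growth follows, and effect is rated visually after roughly 3 weeks.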

[2] = test system: Alopecurus myosuroides (ALOMY); experiment: Pre-emergence herbicidal action against ALOMY; details: scored visually after about 3 weeks, 100% = plants have died
Procedure, shortened: as §1

[3] = test system: Amaranthus retroflexus (AMARE); experiment: Pre-emergence herbicidal action against AMARE; details: visual scoring after about 3 weeks vs untreated controls
Procedure, shortened: as §1

Avena fatua (AVEFA) [4] = experiment: Pre-emergence herbicidal action against AVEFA; details: 320 g/ha, visual scoring after about 3 weeks vs untreated controls
Procedure, shortened: as §1

[5] = test system: Echinochloa crus-galli (ECHCG); experiment: Pre-emergence herbicidal action against ECHCG
Procedure, shortened: as §1

Lolium rigidum (LOLRI) [6] = experiment: Pre-emergence herbicidal action against LOLRI
Procedure, shortened: as §1

[7] = test system: Matricaria inodora (MATIN); experiment: Pre-emergence herbicidal action against MATIN
Procedure, shortened: as §1

[8] = test system: Pharbitis purpurea (PHBPU); experiment: Pre-emergence herbicidal action against PHBPU
Procedure, shortened: as §1

[9] = test system: Polygonum convolvulus (POLCO); experiment: Pre-emergence herbicidal action against POLCO
Procedure, shortened: as §1

Setaria viridis (SETVI) [10] = experiment: Pre-emergence herbicidal action against SETVI
Procedure, shortened: as §1

[11] = test system: Verconica persica (VERPE); experiment: Pre-emergence herbicidal action against VERPE
Procedure, shortened: as §1

Viola tricolor (VIOTR) [12] = experiment: Pre-emergence herbicidal action against VIOTR
Procedure, shortened: as §1

[13] = test system: Abutilon theophrasti (ABUTH); experiment: Post-emergence herbicidal action against ABUTH; details: visual rating about 3 weeks after treatment vs untreated controls (100% = plants have died, 0% = like control plants)
Procedure, shortened: (§2)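 Rates were 320 g/ha or below, applied as aqueous WP/EC spray with 0.5% additive (600 l/ha) onto one-leaf-stage plants. About 3 weeks later in the greenhouse, damage was scored visually against untreated plants on a 0–100% scale, where 100% means plants died.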

[14] = test system: Alopecurus myosuroides (ALOMY); experiment: Post-emergence herbicidal action against ALOMY; details: 320 g/ha, visual rating about 3 weeks after treatment vs untreated controls (100% = plants have died, 0% = like control plants)
Procedure, shortened: as §2

[15] = test system: Amaranthus retroflexus (AMARE); experiment: Post-emergence herbicidal action against AMARE; details: 320 g/ha, visual rating about 3 weeks after treatment
Procedure, shortened: as §2

Avena fatua (AVEFA) [16] = experiment: Post-emergence herbicidal action against AVEFA; details: 320 g/ha, visual rating about 3 weeks after treatment
Procedure, shortened: as §2

[17] = test system: Echinochloa crus-galli (ECHCG); experiment: Post-emergence herbicidal action against ECHCG
Procedure, shortened: as §2

Lolium rigidum (LOLRI) [18] = experiment: Post-emergence herbicidal action against LOLRI
Procedure, shortened: as §2

[19] = test system: Matricaria inodora (MATIN); experiment: Post-emergence herbicidal action against MATIN; details: dosage 320 g/ha
Procedure, shortened: as §2

[20] = test system: Polygonum convolvulus (POLCO); experiment: Post-emergence herbicidal action against POLCO; details: dosage 320 g/ha
Procedure, shortened: as §2

Setaria viridis (SETVI) [21] = experiment: Post-emergence herbicidal action against SETVI; details: dosage 320 g/ha
Procedure, shortened: as §2

[22] = test system: Verconica persica (VERPE); experiment: Post-emergence herbicidal action against VERPE
Procedure, shortened: as §2

Viola tricolor (VIOTR) [23] = experiment: Post-emergence herbicidal action against VIOTR
Procedure, shortened: as §2

Oryza sativa (ORYSA) = details: crop plant compatibility, 80 g/ha, effect in comparison to untreated controls
Procedure, shortened: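 Effects were read visually as % versus untreated controls (0% = no effect, 100% = death) about 3 weeks post-treatment. Application was a post-emergence spray at the one-leaf stage of WP/EC formulations with 0.5% additive at 600 l/ha. Different dosages are denoted a, b and c.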

COC(=O)CNC(=O)[C@@H](C)Oc1nn(-c2ccccn2)c(-c2cncc(F)c2)c1Cl [Example I-185]
Pre-emergence action against ABUTH [1]: 80% | Pre-emergence action against ALOMY ([2]; 80 g/ha): 80% | Pre-emergence action against ALOMY ([2]; 320 g/ha): 90% | Pre-emergence action against AMARE in % ([3]; 80 g/ha): 100% | Pre-emergence action against AMARE in % ([3]; 320 g/ha): 100% | Pre-emergence action against AVEFA in % (Avena fatua (AVEFA) [4]): 90% | Pre-emergence action against ECHCG in % ([5]; dosage 80 g/ha): 80% | Pre-emergence action against ECHCG in % ([5]; dosage 320 g/ha): 90% | Pre-emergence action against LOLRI in % (Lolium rigidum (LOLRI) [6]; dosage 80 g/ha): 100% | Pre-emergence action against LOLRI in % (Lolium rigidum (LOLRI) [6]; dosage 320 g/ha): 100% | Pre-emergence action against MATIN in % ([7]; dosage 80 g/ha): 80% | Pre-emergence action against MATIN in % ([7]; dosage 320 g/ha): 90% | Pre-emergence action against PHBPU in % ([8]; dosage 80 g/ha): 80% | Pre-emergence action against PHBPU in % ([8]; dosage 320 g/ha): 90% | Pre-emergence action against POLCO in % ([9]; dosage 80 g/ha): 80% | Pre-emergence action against POLCO in % ([9]; dosage 320 g/ha): 90% | Pre-emergence action against SETVI in % (Setaria viridis (SETVI) [10]; dosage 80 g/ha): 80% | Pre-emergence action against SETVI in % (Setaria viridis (SETVI) [10]; dosage 320 g/ha): 100% | Pre-emergence action against VERPE in % ([11]; dosage 80 g/ha): 80% | Pre-emergence action against VERPE in % ([11]; dosage 320 g/ha): 90% | Pre-emergence action against VIOTR in % (Viola tricolor (VIOTR) [12]; 320 g/ha, Viola tricolor): 100% | Pre-emergence action against VIOTR in % (Viola tricolor (VIOTR) [12]; dosage 80 g/ha): 100% | Post-emergence action against ABUTH in % ([13]; 80 g/ha): 80% | Post-emergence action against ABUTH in % ([13]; 320 g/ha): 80% | Post-emergence action against ALOMY in % [14]: 80% | Post-emergence action against AMARE in % [15]: 80% | Post-emergence action against AVEFA in % (Avena fatua (AVEFA) [16]): 80% | Post-emergence action against ECHCG in % ([17]; dosage 80 g/ha): 80% | Post-emergence action against ECHCG in % ([17]; dosage 320 g/ha): 90% | Post-emergence action against LOLRI in % (Lolium rigidum (LOLRI) [18]; dosage 80 g/ha): 80% | Post-emergence action against LOLRI in % (Lolium rigidum (LOLRI) [18]; dosage 320 g/ha): 80% | Post-emergence action against MATIN in % [19]: 80% | Post-emergence action against POLCO in % [20]: 80% | Post-emergence action against SETVI in % (Setaria viridis (SETVI) [21]): 80% | Post-emergence action against VERPE in % ([22]; 320 g/ha, VERPE): 80% | Post-emergence action against VERPE in % ([22]; dosage 80 g/ha): 80% | Post-emergence action against VIOTR in % (Viola tricolor (VIOTR) [23]; 80 g/ha): 80% | Post-emergence action against VIOTR in % (Viola tricolor (VIOTR) [23]; 320 g/ha): 80% | Post-emergence action against ORYSA in % (Oryza sativa (ORYSA)): 20%
